# Test results reported in patent US10245847B2, “Reaction solution and ink jet recording method” (Seiko Epson Corporation, priority 2016, dated 2019).
# Columns and labels:
# [1] = degree of solubility with respect to an aqueous solution having a concentration of 2-pyrrolidone of 20% by mass; settings: 20% by mass 2-pyrrolidone aqueous solution, 25° C.
# [2] = log P value (water octanol distribution coefficient) of organic solvents
# Description: Here, regarding several organic solvents, a log P value (water octanol distribution coefficient) will be described below. […] Note that, numbers in parentheses indicate log P values.
# Here, “log P value” means an index indicating the hydrophobicity of the compound. The log P value indicates the ratio of the solutes distributed in these two layers in the octanol/water system. In other words, the larger the log P value of the solute is, the higher the hydrophobicity is, and it dissolves well in the octanol phase. Further, the fact that the log P values of the two kinds of substances are approximate means that the hydrophobicity of each is similar. The log P value can be obtained by, for example, a flask shaking method in which a solute and two kinds of solvents are actually put into a flask and are stirred well, and an HPLC method using high performance liquid chromatography (HPLC).
# [3] = LogP, Table 2, organic solvents of the reaction solution
# [4] = LogP, Table 3, organic solvents of the reaction solution
Molecule,Solubility to 2-pyrrolidone aqueous solution ([1]; Table 2),Solubility to 2-pyrrolidone aqueous solution ([1]; Table 3),logP [2],also measured
"CCC(O)CO (stereo not drawn) [1,2-butanediol]",,,,Solubility to 2-pyrrolidone aqueous solution ([1]; Table 1): ≥1%; logP ([2]; octanol/water): 0.06
COC(C)CCO (stereo not drawn) [3-methoxy-1-butanol],≥1%,≥1%,0.07,
COC(C)(C)CCO [3-methoxy-3-methylbutanol],,,-0.63,
"COCCC(=O)N(C)C [3-methoxy-N,N-dimethyl propanamide]",,,,LogP [2]: 0.73
CC(=O)OCCOC(C)=O [Ethylene glycol diacetate],,,0.4,LogP [2]: 0.40
OCC(O)CO [Glycerin],,,,LogP [2]: −1.76
"CCC(=O)N(C)C [N,N-dimethyl propionamide]",,≥1%,0.46,
CCCCOCCOCCOCCCC [diethylene glycol di-n-butyl ether],,,1.92,LogP [2]: 1.92
CCOCCOCCOC [diethylene glycol ethyl methyl ether],≥1%,≥1%,0.69,
CCCCOCCOCCO [diethylene glycol monobutyl ether],,,1.19,
COCCOCCO [diethylene glycol monomethyl ether],≥1%,≥1%,,"logP [2, 3]: -1.18; logP [2, 4]: -1.18"
CCCCCCOCCO [ethylene glycol mono-n-hexyl ether],≥1%,≥1%,1.57,
CCCCOCCOC(C)=O [ethylene glycol monobutyl ether acetate],≥1%,≥1%,,logP ([2]; octanol/water): 1.79
CC(=O)OCC(C)OC(C)=O (stereo not drawn) [propylene glycol diacetate],,,0.74,
CCC(=O)OCC(C)OC(=O)CC (stereo not drawn) [propylene glycol dipropionate],,,1.76,
CCCCOCC(C)O (stereo not drawn) [propylene glycol monobutyl ether],≥1%,≥1%,1.19,
CCCOCC(C)O (stereo not drawn) [propylene glycol monopropyl ether],,,-0.81,
CC(O)CO (stereo not drawn) [propylene glycol],,,-1.4,
COCCOCCOCCOC [triethylene glycol dimethyl ether],,,-0.67,
CCCCOCCOCCOCCO [triethylene glycol monobutyl ether],,,0.51,
O=C1CCCO1 [γ-butyrolactone],≥1%,≥1%,,"logP [2, 3]: -0.64; logP [2, 4]: -0.64; logP ([2]; log P value (water octanol distribution coefficient), octanol/water): -0.64"
polyethylene glycol monomethyl ether,≥1%,≥1%,,LogP [2]: 0.80
